Measurements reported in patent publication US20210261621A1, “Preparation of Dilipid Polymixins and Use Thereof as Antimicrobial Adjuvants” (priority 2018, published 2021).
Converted amounts (≈) assume the structure as drawn. Like-named read-outs stand apart in the source and are kept apart here. Positions of bridges follow the written chain, without caps; N, C: chain ends. Non-standard residues stand in square brackets, D forms with d. Residues, ends and D or L forms follow the SMILES beside them. *: point of attachment. Benzoyl(4-Ph) = O=C(c1ccc(-c2ccccc2)cc1)*; Lauroyl = CCCCCCCCCCCC(=O)*; Octanoyl = CCCCCCCC(=O)*; Dab = NCC[C@H](N)C(=O)O; Butyryl = CCCC(=O)*

How the values were obtained:
[1] = test system: E. coli CANWARD-2011 97615; assay type: cell-based, Escherichia coli
Procedure, shortened: (§1)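 CLSI microdilution, MHB, 18 h at 37° C. against ~5×10^5 CFU/mL inoculum; patient isolates sourced from […] surveillance, reference strain from ATCC.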

[2] = test system: A. baumannii CAN-ICU 63169; assay type: cell-based, Acinetobacter baumannii
Procedure, shortened: as §1

A. baumannii LAC-4 = assay type: cell-based, Acinetobacter baumannii
Procedure, shortened: as §1

A. baumannii ATCC 17978 = assay type: cell-based, Acinetobacter baumannii
Procedure, shortened: as §1

A. baumannii AB027 = assay type: cell-based, Acinetobacter baumannii
Procedure, shortened: as §1

E. cloacae 117029 = assay type: cell-based, Enterobacter cloacae
Description: (§2) Bacterial strains were either obtained from the American Type Culture Collection (ATCC), Canadian National Intensive Care Unit (CAN-ICU) surveillance study or the Canadian Ward Surveillance (CANWARD) study. Strains from both CAN-ICU and CANWARD are isolates recovered from patients diagnosed with a presumed infectious disease that were admitted in a participating medical center across Canada. Efflux-deficient strain PAO200 (lacking MexAB-OprM efflux system) and PA0750 (lacking MexAB-OprM, MexCD-OprJ, MexEF-OprN, MexJK and MexXY efflux systems, and the outer membrane protein OpmH) were kindly gifted by Dr. Ayush Kumar (University of Manitoba).
(§3) The in vitro antibacterial activity of the compounds studied were assessed by broth microdilution susceptibility testing following CLSI guidelines. Bacterial cultures were grown overnight prior to the assay. The overnight grown cultures were diluted in saline to 0.5 McFarland turbidity, followed by 1:50 dilution in Mueller-Hinton broth (MHB) for inoculation to a final concentration of approximately 5×10^5 colony forming units/mL. Testing was performed on 96-well plates where the tested compounds were 2-fold serially diluted in MHB and incubated with equal volumes of bacterial inoculum at 37° C. for 18 h. […] Wells containing MHB with or without bacterial cells were used as positive or negative control, respectively.

E. coli 94393 = assay type: cell-based, Escherichia coli
Method: (§4) We then addressed the possibility for the dilipid polymyxins to display enhanced antibacterial activity against colistin-resistant Gram-negative pathogens. […] The extended hydrophobic region of the dilipid polymyxin may provide additional hydrophobic interactions to the outer membrane of colistin-resistant organisms. Eight MDR colistin-resistant Gram-negative bacterial isolates were tested, including two E. coli isolates harboring the mcr-1 plasmid-encoded polymyxin resistance gene. We found no difference between the antibacterial activity of dilipid polymyxins and colistin against colistin-resistant Gram-negative bacteria (Table 3).
as §2, §3

E. coli 94474 = assay type: cell-based, Escherichia coli
Method: as §4, §2, §3

P. aeruginosa PA101885 = assay type: cell-based, Pseudomonas aeruginosa
Description: as §2, §3

[3] = test system: P. aeruginosa CAN-ICU 62308; assay type: cell-based, Pseudomonas aeruginosa
Description: as §2, §3

[4] = test system: P. aeruginosa PA259-96918; assay type: cell-based, Pseudomonas aeruginosa
Description: as §2, §3

P. aeruginosa PA100036 = assay type: cell-based, Pseudomonas aeruginosa
Description: as §2, §3

[5] = test system: P. aeruginosa PA260-97103; assay type: cell-based, Pseudomonas aeruginosa
Description: as §2, §3

P. aeruginosa PA095 = assay type: cell-based, Pseudomonas aeruginosa
Description: as §2, §3

P. aeruginosa ATCC 27853 = assay type: cell-based, Pseudomonas aeruginosa
Description: as §2, §3

P. aeruginosa PAO1 = assay type: cell-based, Pseudomonas aeruginosa
Description: as §2, §3

[6] = test system: P. aeruginosa PA264-104354; assay type: cell-based, Pseudomonas aeruginosa
Description: as §2, §3

[7] = test system: P. aeruginosa PA262-101856; assay type: cell-based, Pseudomonas aeruginosa
Description: as §2, §3

Compound | % Hemolysis at 512 μg/mL of polymyxin (pig erythrocytes; red cells of pig, 1 h, 512) | MIC [1] | MIC ([2]; A. baumannii CAN-ICU 63169) | MIC (A. baumannii LAC-4; LAC-4) | MIC (A. baumannii ATCC 17978; A. baumannii ATCC 17978) | MIC (A. baumannii AB027; A. baumannii AB027) | MIC (E. cloacae 117029; 117029) | MIC (E. coli 94393; 94393) | MIC (E. coli 94474; 94474) | MIC (P. aeruginosa PA101885; PA101885) | MIC ([3]; P. aeruginosa CAN-ICU 62308) | MIC ([4]; PA259-96918) | MIC (P. aeruginosa PA100036; P. aeruginosa PA100036) | MIC ([5]; PA260-97103) | MIC (P. aeruginosa PA095; PA095) | MIC (P. aeruginosa ATCC 27853; P. aeruginosa ATCC 27853) | MIC (P. aeruginosa PAO1; P. aeruginosa PAO1 (wild type)) | MIC ([6]; PA264-104354) | MIC ([7]; P. aeruginosa PA262-101856) | MIC (A. baumannii LAC-4; A. baumannii LAC-4) | other results
CCCC(=O)NCC[C@H](NC(=O)CCC)C(=O)N[C@H](C(=O)N[C@@H](CCN)C(=O)N[C@H]1CCNC(=O)[C@H]([C@@H](C)O)NC(=O)[C@H](CCN)NC(=O)[C@H](CCN)NC(=O)[C@H](CC(C)C)NC(=O)[C@@H](Cc2ccccc2)NC(=O)[C@H](CCN)NC1=O)[C@@H](C)O [Compound 1, Dibutyric Acid (Di-C4) Polymyxin] (Butyryl-[Dab](Butyryl)T[Dab][Dab][Dab][dF]L[Dab][Dab]T; lactam 4-C) | 1.1 ± 1.6% | >128 mg/L | >128 mg/L | 128 mg/L (≈ 106 µM) | >128 mg/L | >128 mg/L | 64 mg/L (≈ 53.2 µM) | >64 mg/L | >64 mg/L | 128 mg/L (≈ 106 µM) | >128 mg/L | 64 mg/L (≈ 53.2 µM) | >128 mg/L | 2 mg/L (≈ 1.66 µM) | 64 mg/L (≈ 53.2 µM) | >128 mg/L | 128 mg/L (≈ 106 µM) | 128 mg/L (≈ 106 µM) | >128 mg/L |  | 
CCCCCCCC(=O)NCC[C@H](NC(=O)CCCCCCC)C(=O)N[C@H](C(=O)N[C@@H](CCN)C(=O)N[C@H]1CCNC(=O)[C@H]([C@@H](C)O)NC(=O)[C@H](CCN)NC(=O)[C@H](CCN)NC(=O)[C@H](CC(C)C)NC(=O)[C@@H](Cc2ccccc2)NC(=O)[C@H](CCN)NC1=O)[C@@H](C)O [Compound 2, Dioctanoic Acid (Di-C8) Polymyxin] (Octanoyl-[Dab](Octanoyl)T[Dab][Dab][Dab][dF]L[Dab][Dab]T; lactam 4-C) |  | 64 mg/L (≈ 48.6 µM) |  | 16 mg/L (≈ 12.2 µM) |  |  | 2 mg/L (≈ 1.52 µM) | 4 mg/L (≈ 3.04 µM) | 4 mg/L (≈ 3.04 µM) | 4 mg/L (≈ 3.04 µM) |  | 2 mg/L (≈ 1.52 µM) |  | 2 mg/L (≈ 1.52 µM) | 2 mg/L (≈ 1.52 µM) |  |  | 4 mg/L (≈ 3.04 µM) |  |  | % Hemolysis at 512 μg/mL of polymyxin (pig erythrocytes): 6.2%; MIC ([2]; CAN-ICU 63169): 64 mg/L (≈ 48.6 µM); MIC (A. baumannii ATCC 17978; ATCC 17978): 32 mg/L (≈ 24.3 µM); MIC (A. baumannii AB027; AB027): 32 mg/L (≈ 24.3 µM); MIC ([3]; CAN-ICU 62308): 8 mg/L (≈ 6.08 µM); MIC (P. aeruginosa PA100036; PA100036): 4 mg/L (≈ 3.04 µM); MIC (P. aeruginosa ATCC 27853; ATCC 27853): 8 mg/L (≈ 6.08 µM); MIC (P. aeruginosa PAO1; PAO1): 4 mg/L (≈ 3.04 µM); MIC ([7]; PA262-101856): 8 mg/L (≈ 6.08 µM)
CCCCCCCCCCCC(=O)NCC[C@H](NC(=O)CCCCCCCCCCC)C(=O)N[C@H](C(=O)N[C@@H](CCN)C(=O)N[C@H]1CCNC(=O)[C@H]([C@@H](C)O)NC(=O)[C@H](CCN)NC(=O)[C@H](CCN)NC(=O)[C@H](CC(C)C)NC(=O)[C@@H](Cc2ccccc2)NC(=O)[C@H](CCN)NC1=O)[C@@H](C)O [Compound 3, Didodecanoic Acid (Di-C12) Polymyxin] (Lauroyl-[Dab](Lauroyl)T[Dab][Dab][Dab][dF]L[Dab][Dab]T; lactam 4-C) | 49.7 ± 3.3% | 64 mg/L (≈ 44.8 µM) |  |  | >128 mg/L |  | 16 mg/L (≈ 11.2 µM) | 32 mg/L (≈ 22.4 µM) | >64 mg/L | 32 mg/L (≈ 22.4 µM) |  | 16 mg/L (≈ 11.2 µM) |  | 32 mg/L (≈ 22.4 µM) | 8 mg/L (≈ 5.6 µM) | >128 mg/L |  | 64 mg/L (≈ 44.8 µM) |  | >128 mg/L | MIC ([2]; CAN-ICU 63169): 128 mg/L (≈ 89.6 µM); MIC (A. baumannii AB027; AB027): 128 mg/L (≈ 89.6 µM); MIC ([3]; CAN-ICU 62308): 64 mg/L (≈ 44.8 µM); MIC (P. aeruginosa PA100036; PA100036): 32 mg/L (≈ 22.4 µM); MIC (P. aeruginosa PAO1; PAO1): 32 mg/L (≈ 22.4 µM); MIC ([7]; PA262-101856): 32 mg/L (≈ 22.4 µM)
CC(C)C[C@@H]1NC(=O)[C@@H](Cc2ccccc2)NC(=O)[C@H](CCN)NC(=O)[C@@H](NC(=O)[C@H](CCN)NC(=O)[C@@H](NC(=O)[C@H](CCNC(=O)c2ccc(-c3ccccc3)cc2)NC(=O)c2ccc(-c3ccccc3)cc2)[C@@H](C)O)CCNC(=O)[C@H]([C@@H](C)O)NC(=O)[C@H](CCN)NC(=O)[C@H](CCN)NC1=O [Compound 5, Dibiphenyl-4-Carboxylic Acid (Di-Biphenyl) Polymyxin] ({Benzoyl(4-Ph)}-[Dab](Benzoyl(4-Ph))T[Dab][Dab][Dab][dF]L[Dab][Dab]T; lactam 4-C) |  | 32 mg/L (≈ 22.5 µM) | 64 mg/L (≈ 45 µM) |  | 16 mg/L (≈ 11.2 µM) | 6 mg/L (≈ 4.21 µM) |  | 16 mg/L (≈ 11.2 µM) | 8 mg/L (≈ 5.62 µM) |  | 16 mg/L (≈ 11.2 µM) |  | 8 mg/L (≈ 5.62 µM) |  |  | 32 mg/L (≈ 22.5 µM) | 8 mg/L (≈ 5.62 µM) |  | 8 mg/L (≈ 5.62 µM) | 16 mg/L (≈ 11.2 µM) | MIC (E. cloacae 117029; E. cloacae 117029): 8 mg/L (≈ 5.62 µM); MIC (P. aeruginosa PA101885; P. aeruginosa PA101885): 8 mg/L (≈ 5.62 µM); MIC ([4]; P. aeruginosa PA259-96918): 8 mg/L (≈ 5.62 µM); MIC ([5]; P. aeruginosa PA260-97103): 8 mg/L (≈ 5.62 µM); MIC (P. aeruginosa PA095; P. aeruginosa PA095): 4 mg/L (≈ 2.81 µM); MIC ([6]; P. aeruginosa PA264-104354): 8 mg/L (≈ 5.62 µM)
colistin [reference compound] |  |  | 32 mg/L |  | 0.25 mg/L | 0.25 mg/L |  |  |  |  | 2 mg/L |  | 1 mg/L |  |  | 2 mg/L | 1 mg/L |  | 2 mg/L | 0.125 mg/L | MIC (E. cloacae 117029; E. cloacae 117029): 0.125 mg/L; MIC (E. coli 94393; E. coli 94393, colistin-resistant multidrug-resistant isolate): 4 mg/L; MIC (E. coli 94474; E. coli 94474, colistin-resistant multidrug-resistant isolate): 16 mg/L; MIC (P. aeruginosa PA101885; P. aeruginosa PA101885): 1 mg/L; MIC ([4]; P. aeruginosa PA259-96918): 0.25 mg/L; MIC ([5]; P. aeruginosa PA260-97103): 0.5 mg/L; MIC (P. aeruginosa PA095; P. aeruginosa PA095): 0.25 mg/L; MIC ([6]; P. aeruginosa PA264-104354): 2 mg/L
